{
  "source": "ChEMBL document CHEMBL5723035",
  "about": "“Affinity Biochemical Literature for EUbOPEN Chemogenomic Library” (2024)",
  "key": {"[1]": {"molecular_target": "Alpha-ketoglutarate-dependent dioxygenase alkB homolog 3 (Homo sapiens, UniProt Q96Q83)"}, "[2]": {"molecular_target": "3',5'-cyclic-AMP phosphodiesterase 4A (Homo sapiens, UniProt P27815)", "sequence (P27815 whole entry)": "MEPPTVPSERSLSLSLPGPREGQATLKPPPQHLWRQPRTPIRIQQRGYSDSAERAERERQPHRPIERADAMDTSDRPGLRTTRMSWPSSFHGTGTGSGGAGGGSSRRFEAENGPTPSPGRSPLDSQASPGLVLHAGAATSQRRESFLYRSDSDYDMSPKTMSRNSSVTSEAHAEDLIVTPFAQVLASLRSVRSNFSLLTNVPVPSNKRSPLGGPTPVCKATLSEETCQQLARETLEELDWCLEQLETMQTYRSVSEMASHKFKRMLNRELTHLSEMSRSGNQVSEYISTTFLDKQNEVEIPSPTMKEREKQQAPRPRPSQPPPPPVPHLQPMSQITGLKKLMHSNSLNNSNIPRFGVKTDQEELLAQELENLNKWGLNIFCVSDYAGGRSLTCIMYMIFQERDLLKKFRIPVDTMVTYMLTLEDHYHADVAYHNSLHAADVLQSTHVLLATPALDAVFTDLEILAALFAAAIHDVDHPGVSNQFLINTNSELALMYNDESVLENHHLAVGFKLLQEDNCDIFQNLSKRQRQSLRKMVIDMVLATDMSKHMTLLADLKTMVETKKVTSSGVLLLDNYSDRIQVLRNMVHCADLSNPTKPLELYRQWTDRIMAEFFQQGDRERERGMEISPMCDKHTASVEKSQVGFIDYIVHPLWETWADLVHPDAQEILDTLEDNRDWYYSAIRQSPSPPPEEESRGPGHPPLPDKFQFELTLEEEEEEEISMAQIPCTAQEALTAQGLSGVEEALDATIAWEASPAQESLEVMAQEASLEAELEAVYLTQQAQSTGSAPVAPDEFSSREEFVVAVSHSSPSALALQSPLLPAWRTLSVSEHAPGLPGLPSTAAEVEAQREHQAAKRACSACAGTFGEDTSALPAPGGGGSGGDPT", "test": "Affinity Biochemical interaction: (fluorescence polarisation assay, inhibition of enzyme activity) EUB0002577a PDE4A", "type": "functional", "set-up": "mode of action Inhibitor, recommended concentration 1 uM"}, "[3]": {"molecular_target": "3',5'-cyclic-AMP phosphodiesterase 4C (Homo sapiens, UniProt Q08493)", "test": "Affinity Biochemical interaction: (fluorescence polarisation assay, inhibition of enzyme activity) EUB0002577a PDE4C", "type": "functional", "set-up": "mode of action Inhibitor, recommended concentration 1 uM"}, "Procathepsin L": {"molecular_target": "Procathepsin L (Homo sapiens, UniProt P07711)", "test": "Affinity Biochemical interaction: (enzymatic assay (fluorogenic substrate cleavage)) EUB0002529a CTSL", "type": "functional", "set-up": "mode of action Inhibitor, recommended concentration 1 uM"}, "[4]": {"molecular_target": "Histone acetyltransferase p300 (Homo sapiens, UniProt Q09472)", "test": "Affinity Biochemical interaction: (inhibition of acetyl-transferase reaction) EUB0002628aAD EP300", "type": "functional", "set-up": "mode of action Inhibitor, recommended concentration 1 uM"}, "Acid ceramidase": {"molecular_target": "Acid ceramidase (Homo sapiens, UniProt Q13510)", "sequence (Q13510 22-142 limits assumed)": "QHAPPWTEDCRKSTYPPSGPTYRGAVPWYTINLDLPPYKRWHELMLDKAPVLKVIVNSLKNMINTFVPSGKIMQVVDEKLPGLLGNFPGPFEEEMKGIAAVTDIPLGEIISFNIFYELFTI", "sequence (Q13510 143-395 limits assumed)": "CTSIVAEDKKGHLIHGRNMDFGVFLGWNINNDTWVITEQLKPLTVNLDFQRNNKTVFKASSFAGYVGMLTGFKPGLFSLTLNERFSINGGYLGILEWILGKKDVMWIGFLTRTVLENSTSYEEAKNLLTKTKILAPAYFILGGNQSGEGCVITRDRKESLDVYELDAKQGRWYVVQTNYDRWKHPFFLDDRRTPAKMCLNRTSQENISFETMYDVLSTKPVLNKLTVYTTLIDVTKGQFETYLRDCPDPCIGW", "test": "Affinity Biochemical interaction: (inhibition of substrate hydrolysis determined through mass spectrometry) EUB0002527a ASAH1", "type": "functional", "set-up": "mode of action Inhibitor, recommended concentration 1 uM"}, "[5]": {"molecular_target": "T1, Breast cancer type 1 susceptibility protein (Homo sapiens, UniProt P38398)", "T1 sequence (P38398 whole entry)": "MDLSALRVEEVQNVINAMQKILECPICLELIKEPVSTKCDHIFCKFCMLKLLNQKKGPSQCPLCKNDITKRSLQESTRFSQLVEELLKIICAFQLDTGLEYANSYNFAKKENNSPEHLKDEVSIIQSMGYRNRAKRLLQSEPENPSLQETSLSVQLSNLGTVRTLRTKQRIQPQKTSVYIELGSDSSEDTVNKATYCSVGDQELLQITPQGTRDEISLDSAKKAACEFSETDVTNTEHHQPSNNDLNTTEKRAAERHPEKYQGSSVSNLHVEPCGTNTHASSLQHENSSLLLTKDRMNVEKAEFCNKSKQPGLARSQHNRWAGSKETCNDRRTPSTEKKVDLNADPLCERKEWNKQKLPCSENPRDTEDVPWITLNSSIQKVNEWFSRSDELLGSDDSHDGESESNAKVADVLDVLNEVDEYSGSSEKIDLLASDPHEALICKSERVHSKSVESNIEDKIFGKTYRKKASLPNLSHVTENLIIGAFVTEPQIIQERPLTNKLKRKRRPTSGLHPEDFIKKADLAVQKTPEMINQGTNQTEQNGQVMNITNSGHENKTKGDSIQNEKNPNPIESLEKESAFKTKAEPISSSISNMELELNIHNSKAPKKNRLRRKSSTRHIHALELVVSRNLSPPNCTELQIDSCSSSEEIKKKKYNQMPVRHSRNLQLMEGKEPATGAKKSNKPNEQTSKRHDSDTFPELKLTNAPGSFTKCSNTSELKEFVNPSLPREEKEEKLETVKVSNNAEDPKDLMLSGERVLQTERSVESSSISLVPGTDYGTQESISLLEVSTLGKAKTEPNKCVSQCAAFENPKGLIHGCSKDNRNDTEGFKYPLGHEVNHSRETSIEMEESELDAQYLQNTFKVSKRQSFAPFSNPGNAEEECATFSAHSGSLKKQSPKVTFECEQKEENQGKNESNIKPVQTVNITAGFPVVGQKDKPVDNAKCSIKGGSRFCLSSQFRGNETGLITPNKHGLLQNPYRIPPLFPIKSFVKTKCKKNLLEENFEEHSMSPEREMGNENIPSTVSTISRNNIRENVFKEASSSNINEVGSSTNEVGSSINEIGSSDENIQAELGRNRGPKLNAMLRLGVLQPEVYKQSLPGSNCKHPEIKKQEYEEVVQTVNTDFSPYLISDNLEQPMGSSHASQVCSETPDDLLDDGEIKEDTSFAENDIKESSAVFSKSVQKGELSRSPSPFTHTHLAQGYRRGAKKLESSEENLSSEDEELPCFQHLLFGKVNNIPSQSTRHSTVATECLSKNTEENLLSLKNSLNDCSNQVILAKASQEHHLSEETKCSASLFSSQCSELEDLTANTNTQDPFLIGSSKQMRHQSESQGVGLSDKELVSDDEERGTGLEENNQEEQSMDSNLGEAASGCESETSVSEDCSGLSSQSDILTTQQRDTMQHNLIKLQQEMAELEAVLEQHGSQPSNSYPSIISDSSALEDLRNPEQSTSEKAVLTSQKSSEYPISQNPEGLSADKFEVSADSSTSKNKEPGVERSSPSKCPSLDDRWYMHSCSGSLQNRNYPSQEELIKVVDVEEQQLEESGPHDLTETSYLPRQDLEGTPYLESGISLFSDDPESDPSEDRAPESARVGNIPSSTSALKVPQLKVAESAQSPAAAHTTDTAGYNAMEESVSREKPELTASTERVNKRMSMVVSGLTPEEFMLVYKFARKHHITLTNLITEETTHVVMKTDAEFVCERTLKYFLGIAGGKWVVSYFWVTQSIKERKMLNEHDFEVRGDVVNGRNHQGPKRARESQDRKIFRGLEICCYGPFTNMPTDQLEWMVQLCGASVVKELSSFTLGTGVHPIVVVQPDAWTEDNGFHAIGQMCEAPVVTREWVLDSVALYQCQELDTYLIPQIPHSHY", "test": "Affinity Biochemical interaction: (Fluorescence polarisation assay) EUB0002518a BRCA1", "type": "functional", "set-up": "mode of action Inhibitor, recommended concentration 1 uM"}, "[6]": {"molecular_target": "T1, Breast cancer type 1 susceptibility protein", "test": "Affinity Biochemical interaction: (ITC) EUB0002518a BRCA1", "set-up": "mode of action Inhibitor, recommended concentration 1 uM"}, "[7]": {"molecular_target": "cAMP and cAMP-inhibited cGMP 3',5'-cyclic phosphodiesterase 10A (Homo sapiens, UniProt Q9Y233)", "test": "Affinity Biochemical interaction: (inhibition of enzyme activity in cleaving radiolabelled substrate [3H]cAMP) EUB0002682aCl PDE10A", "type": "functional", "set-up": "mode of action Inhibitor, recommended concentration 1 uM"}, "[8]": {"molecular_target": "Triacylglycerol hydrolase DDHD2 (Homo sapiens, UniProt O94830)", "test": "Affinity Biochemical interaction: (Gel-based competitive activity-based protein profiling with HT-01 probe and membranes) EUB0002612a DDHD2", "type": "functional, cell membranes", "set-up": "mode of action Inhibitor, recommended concentration 1 uM"}, "[9]": {"molecular_target": "T2, Chromobox protein homolog 8 (Homo sapiens, UniProt Q9HC52)", "T2 sequence (Q9HC52 whole entry)": "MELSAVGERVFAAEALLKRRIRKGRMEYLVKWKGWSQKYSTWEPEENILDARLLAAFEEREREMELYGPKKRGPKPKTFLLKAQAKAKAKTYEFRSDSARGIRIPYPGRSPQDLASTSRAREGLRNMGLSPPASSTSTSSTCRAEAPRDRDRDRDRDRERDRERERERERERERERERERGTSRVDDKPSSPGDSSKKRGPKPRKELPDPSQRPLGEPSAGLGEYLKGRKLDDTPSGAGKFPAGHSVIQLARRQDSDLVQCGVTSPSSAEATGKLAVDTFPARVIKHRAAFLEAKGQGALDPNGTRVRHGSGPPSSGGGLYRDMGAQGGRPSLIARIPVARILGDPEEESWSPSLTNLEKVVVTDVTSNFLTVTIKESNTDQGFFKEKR", "test": "Affinity Biochemical interaction: (Fluorescence polarisation (fluorescein conjugated)) EUB0002326a CBX8", "type": "functional", "set-up": "mode of action Inhibitor, recommended concentration 1 uM"}, "[10]": {"molecular_target": "T2, Chromobox protein homolog 8", "test": "Affinity Biochemical interaction: (MST (fluorescein-conjugated)) EUB0002326a CBX8", "set-up": "mode of action Inhibitor, recommended concentration 1 uM"}, "[11]": {"molecular_target": "T2, Chromobox protein homolog 8", "test": "Affinity Biochemical interaction: (Thermal Shift Assay) EUB0002326a CBX8", "set-up": "mode of action Inhibitor, recommended concentration 1 uM"}, "Histone deacetylase 1": {"molecular_target": "Histone deacetylase 1 (Homo sapiens, UniProt Q13547)", "sequence (Q13547 whole entry)": "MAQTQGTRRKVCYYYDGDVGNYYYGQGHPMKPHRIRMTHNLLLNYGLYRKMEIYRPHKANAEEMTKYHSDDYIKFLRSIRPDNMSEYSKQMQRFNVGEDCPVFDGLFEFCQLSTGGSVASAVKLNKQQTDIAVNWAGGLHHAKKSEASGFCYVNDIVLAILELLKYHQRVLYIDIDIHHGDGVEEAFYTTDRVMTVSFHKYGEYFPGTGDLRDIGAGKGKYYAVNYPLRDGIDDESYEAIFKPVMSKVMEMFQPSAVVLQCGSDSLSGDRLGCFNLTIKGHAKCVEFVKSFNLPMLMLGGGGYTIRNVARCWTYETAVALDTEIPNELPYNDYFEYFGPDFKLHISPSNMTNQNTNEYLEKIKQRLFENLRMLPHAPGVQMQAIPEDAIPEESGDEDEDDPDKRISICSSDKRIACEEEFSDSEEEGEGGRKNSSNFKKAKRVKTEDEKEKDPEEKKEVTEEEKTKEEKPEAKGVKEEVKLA", "test": "Affinity Biochemical interaction: (fluorometric activity assay) EUB0002519a HDAC1", "type": "functional", "set-up": "mode of action Inhibitor, recommended concentration 1 uM"}, "Histone deacetylase 2": {"molecular_target": "Histone deacetylase 2 (Homo sapiens, UniProt Q92769)", "sequence (Q92769 whole entry)": "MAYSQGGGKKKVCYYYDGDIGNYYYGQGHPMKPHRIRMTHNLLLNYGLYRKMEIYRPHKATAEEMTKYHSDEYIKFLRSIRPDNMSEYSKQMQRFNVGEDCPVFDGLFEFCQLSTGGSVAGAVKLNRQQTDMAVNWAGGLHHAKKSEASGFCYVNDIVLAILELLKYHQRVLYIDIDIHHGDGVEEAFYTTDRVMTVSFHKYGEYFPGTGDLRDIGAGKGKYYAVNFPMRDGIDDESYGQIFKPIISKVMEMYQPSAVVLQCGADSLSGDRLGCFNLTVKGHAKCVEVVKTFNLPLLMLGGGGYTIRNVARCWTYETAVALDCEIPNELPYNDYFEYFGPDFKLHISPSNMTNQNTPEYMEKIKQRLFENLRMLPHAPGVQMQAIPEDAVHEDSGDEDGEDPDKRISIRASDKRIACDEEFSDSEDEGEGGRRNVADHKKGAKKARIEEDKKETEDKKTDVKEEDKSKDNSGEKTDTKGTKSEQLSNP", "test": "Affinity Biochemical interaction: (fluorometric activity assay) EUB0002519a HDAC2", "type": "functional", "set-up": "mode of action Inhibitor, recommended concentration 1 uM"}, "[12]": {"molecular_target": "Ubiquitin carboxyl-terminal hydrolase 14 (Homo sapiens, UniProt P54578)", "sequence (P54578 whole entry)": "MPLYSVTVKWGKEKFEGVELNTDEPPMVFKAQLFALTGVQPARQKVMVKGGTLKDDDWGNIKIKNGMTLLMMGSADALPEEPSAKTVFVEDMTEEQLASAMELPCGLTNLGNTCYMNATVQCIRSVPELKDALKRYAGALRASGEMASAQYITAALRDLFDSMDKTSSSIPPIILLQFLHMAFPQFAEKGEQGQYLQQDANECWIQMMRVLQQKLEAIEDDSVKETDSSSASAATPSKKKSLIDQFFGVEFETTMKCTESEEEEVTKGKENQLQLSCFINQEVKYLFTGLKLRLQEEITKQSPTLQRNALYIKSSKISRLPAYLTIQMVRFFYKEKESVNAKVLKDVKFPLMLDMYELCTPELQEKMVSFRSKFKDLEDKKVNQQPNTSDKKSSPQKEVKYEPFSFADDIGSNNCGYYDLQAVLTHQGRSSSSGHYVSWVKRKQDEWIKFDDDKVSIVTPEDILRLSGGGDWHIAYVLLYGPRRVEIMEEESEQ"}, "Adenosine kinase": {"molecular_target": "Adenosine kinase (Homo sapiens, UniProt P55263)", "sequence (P55263 whole entry)": "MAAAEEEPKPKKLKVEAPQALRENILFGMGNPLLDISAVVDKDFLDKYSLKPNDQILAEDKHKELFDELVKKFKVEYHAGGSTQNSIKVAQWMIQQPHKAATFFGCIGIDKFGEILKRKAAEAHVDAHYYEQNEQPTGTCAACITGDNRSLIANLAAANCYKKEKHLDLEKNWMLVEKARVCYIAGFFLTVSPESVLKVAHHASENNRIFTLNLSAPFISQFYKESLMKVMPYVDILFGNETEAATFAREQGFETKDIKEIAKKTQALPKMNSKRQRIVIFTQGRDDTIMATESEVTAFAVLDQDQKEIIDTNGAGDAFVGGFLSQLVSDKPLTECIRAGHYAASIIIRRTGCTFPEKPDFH", "test": "Affinity Biochemical interaction: (radiochemical assay, inhibition of AK activity in cell supernatants) EUB0002485aCl ADK", "type": "functional, subcellular", "set-up": "mode of action Inhibitor, recommended concentration 1 uM"}, "[13]": {"molecular_target": "Dual specificity calcium/calmodulin-dependent 3',5'-cyclic nucleotide phosphodiesterase 1A (Homo sapiens, UniProt P54750)", "test": "Affinity Biochemical interaction: (inhibition of [3H]cGMP cleavage, scintillation proximity assay) EUB0002562a PDE1A", "type": "functional", "set-up": "mode of action Inhibitor, recommended concentration 1 uM"}},
  "note": "Non-standard residues stand in square brackets, D forms with d. Residues, ends and D or L forms follow the SMILES beside them. *: point of attachment. Benzoyl(4-OPh) = O=C(c1ccc(Oc2ccccc2)cc1)*; Lys(Et2) = CCN(CC)CCCC[C@H](N)C(=O)O; d(aIle) = CC[C@H](C)[C@@H](N)C(=O)O; Gly(cPent) = N[C@H](C(=O)O)C1CCCC1; NH(propargyl) = C#CCN*",
  "data": [
    {"molecule": "Cc1ccc2[nH]c(-n3nc(C)c(Cc4ccccc4)c3O)nc2c1", "values": [
      {"measurement": "IC50", "setting": "[1]", "value": 670, "unit": "nM"}
    ]},
    {"molecule": "CC(C)NC(=O)c1ccc(OC(F)F)c(OCC2CC2)c1", "values": [
      {"measurement": "IC50", "setting": "[2]", "value": 113, "unit": "nM"},
      {"measurement": "IC50", "setting": "[3]", "value": 164, "unit": "nM"}
    ]},
    {"molecule": "Cn1nc(C(C)(C)C)cc1C(=O)NC(Cc1cccc(Cl)c1)C(=O)NCC#N", "note": "(stereo not drawn)", "values": [
      {"measurement": "Ki", "setting": "Procathepsin L", "value": 82, "unit": "nM"}
    ]},
    {"molecule": "CC(=O)N[C@@H](CCCCNC(=O)CSCCNC(=O)CCNC(=O)[C@H](O)C(C)(C)COP(=O)(O)OP(=O)(O)OC[C@H]1O[C@@H](n2cnc3c(N)ncnc32)[C@H](O)[C@@H]1OP(=O)(O)O)C(N)=O", "values": [
      {"measurement": "IC50", "setting": "[4]", "value": "~50", "unit": "nM"}
    ]},
    {"molecule": "CCCCCCNC(=O)n1cc(F)c(=O)[nH]c1=O", "note": "[CARMOFUR]", "values": [
      {"measurement": "IC50", "setting": "Acid ceramidase", "value": 29, "unit": "nM"}
    ]},
    {"molecule": "O=C(CNC(=O)[C@H](COP(=O)(O)O)NC(=O)CCc1c[nH]c2ccccc12)NCCCCc1ccccc1", "values": [
      {"measurement": "IC50", "setting": "[5]", "value": 310, "unit": "nM"},
      {"measurement": "Kd", "setting": "[6]", "value": 300, "unit": "nM"}
    ]},
    {"molecule": "Cc1ccc2c(c1)nc(/C=C/c1cccc3cccnc13)n2-c1cccc(OCCCN2CCN(C)CC2)c1", "values": [
      {"measurement": "IC50", "setting": "[7]", "value": 2.8, "unit": "nM"}
    ]},
    {"molecule": "O=C(N(CCc1ccccc1)C1CCCCC1)n1ncc(-c2ccc(OC(F)(F)F)cc2)n1", "values": [
      {"measurement": "IC50", "setting": "[8]", "value": 1.3, "unit": "nM"}
    ]},
    {"molecule": "C#CCNC(=O)[C@H](CO)NC(=O)[C@H](CCCCN(CC)CC)NC(=O)[C@H](NC(=O)[C@@H](NC(=O)c1ccc(Oc2ccccc2)cc1)C1CCCC1)[C@@H](C)CC", "note": "({Benzoyl(4-OPh)}-[Gly(cPent)][d(aIle)][Lys(Et2)]S-{NH(propargyl)})", "values": [
      {"measurement": "Kd", "setting": "[9]", "value": 800, "unit": "nM"},
      {"measurement": "Kd", "setting": "[10]", "value": 700, "unit": "nM"},
      {"measurement": "Kd", "setting": "[11]", "value": 500, "unit": "nM"}
    ]},
    {"molecule": "Nc1ccc(-c2cccs2)cc1NC(=O)c1ccc(NC=O)cc1", "values": [
      {"measurement": "IC50", "setting": "Histone deacetylase 1", "value": 40, "unit": "nM"},
      {"measurement": "IC50", "setting": "Histone deacetylase 2", "value": 100, "unit": "nM"}
    ]},
    {"molecule": "Cc1cc(C(=O)CN2CCCCC2)c(C)n1-c1ccc(Cl)cc1", "values": [
      {"measurement": "IC50", "setting": "[12]", "value": 600, "unit": "nM"}
    ]},
    {"molecule": "Nc1ncnc2nc(-c3ccc(N4CCOCC4)nc3)cc(-c3cccc(Br)c3)c12", "values": [
      {"measurement": "IC50", "setting": "Adenosine kinase", "value": 3, "unit": "nM"}
    ]},
    {"molecule": "Cn1c(OC[C@H]2CC[C@H](C(F)(F)F)CC2)nn2c(C3CCOCC3)ncc2c1=O", "values": [
      {"measurement": "IC50", "setting": "[13]", "value": 97.6, "unit": "nM"}
    ]}
  ]
}
